Laboratory results published in patent US10351519B2, “Sulfamate derivative compounds, processes for preparing them and their uses” (BIO-PHARM SOLUTIONS CO., LTD., priority 2016, dated 2019).

Assays:
Type in all cases: in vivo
ICR mice [1] = test: Tail-flick test; conditions: orally
Method: To examine the pain relief effect of the sulfamate compounds, a tail-flick test was conducted, referring to Current Protocols in Neuroscience; Behavioral Neuroscience Unit 8.9.
ICR mice (male, 25-30 g; Orient Bio, Korea) were habituated before test (in test room) for 1 hour. Animals were fasted 2 hr before administration of compounds. Each of the tested compound were orally administered at the 1˜3 dose, 10 ul/g, by bw (n=4-6/group). All compounds were dissolved in a vehicle of 30% (v/v) PEG 400 or 20% (v/v) Tween 80. The control group was treated the vehicle without compounds.
After the administration of compounds, the mice tail were put on a tail-flick analgesia meter. To avoid tissue damage, maximal exposure time to pain stimuli was restricted to 15 seconds. The withdrawal latency was measured to the time to the point when each mouse responded. The relative values compared to the control (% control) were calculated.

ICR mice [2] = test: Chemical induced seizure model (BIC); conditions: for ED50: Mus musculus, ip
Method: Male ICR mice (purchased from Orient Bio Inc. Korea) of body weight 19-26 g were used for these studies. The test materials were administered intraperitoneal route in a volume of 10 ul/g weight. Pharmacological effects of all the test materials were evaluated to compared test groups (n=6) with a control group (n=6). Control group was administrated vehicle, only. The peak time was determined by administration test material's random dose for 0.5-4 hour. The time that the most protect was defined peak time and ED50 was determined by other dose administration at peak time. BIC was dissolved in 0.9% saline and administered subcutaneously (s.c.) at its CD97 (convulsive dose 97%) the dose of BIC that produced clonic seizures in 97% into a loose fold of skin in the midline of the neck in a volume of 10 ul/g body weight. The animals were then transferred to observation cages and observed continuously for 30 min. Clonic seizure was elicited in approximately 95% of control group. Protection was defined as complete absence of a clonic seizure over the 30-min observation period. The time that the most protect was defined peak time and ED50 was determined by other dose administration at peak time. The effective dose of compound necessary to protect against seizures to 50% of controls (i.e. ED50) was determined by log probit analysis using Excel 2007 (Microsoft).

Sprague-Dawley rats = test: Antiallodynic activity on post operative-induced pain model; conditions: intraperitoneal injection; for ED50: Rattus norvegicus, ip, read-out: Post Operation ED50
Text: Male Sprague-Dawley rats (230-250 g, Orient Bio, Korea), were habituated at least 3 days before surgery and were allowed free access to food and water throughout the experimentation. Room temperature and humidity were maintained at 24±2 and 50±10%, respectively. The process of performing the post-operation model's surgery was adapted from Brennan et al (1996). At first, rats with allodynia (threshold valueless than 8 g) were excluded in Pre-von Frey Test. During the post-operation surgery, rats were anesthetized under gaseous anesthesia with 2% isoflurane. The rat was placed, lying face down on 37 degree warm plate to prevent against hypothermia. The ipsilateral plantar aspect (left side) of the hind paw was prepared in a sterile manner with a 10% povidone-iodine solution. A 1 cm longitudinal incision was made with a number 10 blade, through the skin and fascia of the ipsilateral plantar aspect of the foot, starting from 0.5 cm from the proximal edge of the heel and extending toward the toes. Rats' plantar muscles were elevated and incised longitudinally. After hemostasis with gentle pressure, the skin was opposed with 2 mattress sutures of 4-0 Dafilon.
After 24 hours of recovery, rats with a good response (threshold less than 4 g) in Pre-von Frey Test were selected. According to this response, we made three groups with each group having equal average responses: Group 1, post-operation and drug treated; Group 2, post-operation and vehicle treated; Group 3, no post-operation and vehicle treated. In this study, Group 3 was the sham control (positive) group. […]
For efficacy measure, the threshold value of group C was assigned 100% efficacy, and the percentage of the threshold values of group A compared to group C (for each different dose level) were calculated as the efficacies. Base on these efficacy values, ED50 was calculated using log fitting. […]
For pain threshold test, all animals were placed in a stainless steel meshed chamber and habituated for 30 min in the test cage. The tactile sensitivity of the ipsilateral hind paw was measured using the up-and-down method (Dixon, 1980) with seven von Frey monofilaments (0.4, 1, 2, 4, 6, 8, and 15 g) using 3 trials. The 50% paw withdrawal threshold for each paw was calculated using the following formula: [Xth] log=[vFr] log+ky, where [vFr] is the force of the last von Frey filament used, k=0.2249 which is the average interval (in log units) between the von Frey monofilaments, y which is a value that depends upon the pattern of withdrawal responses, and Xth which is the threshold value (Dixon, 1980). […]
The relative values compared to the sham (% control) were calculated and shown in Table 7, which show an antiallodynic effect of the compound of examples on Post operation-induced pain model in rats.

| SMILES | tail-flick test Peak Time (ICR mice [1]) | tail-flick test efficacy % (ICR mice [1]; 100 mg/kg) | BIC(ip) Peak Time (ICR mice [2]) [h] | ED50 (ICR mice [2]) [mg/kg] | ED50 (Sprague-Dawley rats) [mg/kg] | Post Operation Peak Time (Sprague-Dawley rats) [h] | tail-flick test Dose (ICR mice [1]) [mg/kg] |
| --- | --- | --- | --- | --- | --- | --- | --- |
| C[C@H](OS(N)(=O)=O)[C@@H](O)c1c(Cl)cccc1Cl [Example 7, (1S, 2S)-1-(2,6-dichlorophenyl)-1-hydroxypropan-2-yl sulfamate] | 1~2 hr | 100 (19.0%) | 1 | 30.8 | 5.8 | 0.5 | – |
| C[C@@H](OS(N)(=O)=O)[C@H](O)c1c(Cl)cccc1Cl [Example 8, (1R, 2R)-1-(2,6-dichlorophenyl)-1-hydroxypropan-2-yl sulfamate] | – | – | 1 | 73.9 | 4.2 | 0.5 | >200 |
